According to patent US9365502B2, “Neuroactive substituted cyclopenta[b]phenanthrenes as modulators for GABA type-A receptors” (priority 2013, dated 2016):
Where two headings read alike, the source gives them in different places.

Experiments:
[1] = molecular target: rat α1β2γ2L type GABAA receptors expressed in Xenopus laevis oocytes (Rattus norvegicus (Rat), UniProt P62813+P63138, INS375LLRMFSFK); test: Potentiation of GABA-mediated chloride currents, oocyte electrophysiology; assay type: cell-based; conditions: ± SEM; for Oocyte electrophysiology 0.1 μM (ratio of currents in presence/absence of compound): 0.1 μM compound; for Oocyte electrophysiology 0.1 μM (ratio of currents in presence/absence of compound) / Oocyte electrophysiology 1.0 μM (ratio of currents in presence/absence of compound) / Oocyte electrophysiology 10 μM (ratio of currents in presence/absence of compound): 2 μM GABA, N>=4; for Oocyte electrophysiology 1.0 μM (ratio of currents in presence/absence of compound): 1.0 μM compound; for Oocyte electrophysiology (gating) 10 μM (ratio of compound only current/2 μM GABA current): 10 μM compound in the absence of GABA; for Oocyte electrophysiology 10 μM (ratio of currents in presence/absence of compound): 10 μM compound
Experimental: The compounds of the present disclosure were evaluated for the ability to potentiate chloride currents mediated by 2 μM GABA at rat α1β2γ2L type GABAA receptors expressed in Xenopus laevis oocytes and the results are shown in Table 2.
The GABA concentration used for the control response was 2 μM. Each compound was evaluated on at least four different oocytes at the concentrations indicated, and the results reported are the ratio of currents measured in the presence/absence of added compound. Gating represents direct current gated by 10 μM compound in the absence of GABA, and this current is reported as the ratio of compound only current/2 μM GABA current. Error limits are calculated as standard error of the mean (N≧4). Methods used are known in the art (see Jiang, X., et al.).

[2] = molecular target: picrotoxin binding site on GABAA receptors; test: [35S]-TBPS displacement (inhibition of [35S]-TBPS binding); conditions: mean ± SEM, duplicate experiments performed in triplicate
Experimental: The IC50 values for non-competitive displacers of [^35S]-TBPS from the picrotoxin binding site on GABAA receptors are reported in Table 1.
Results presented are from duplicate experiments performed in triplicate. Error limits are calculated as standard error of the mean. Methods used are known in the art (see Jiang, X., et al., Neurosteroid analogues. 9. Conformationally constrained pregnanes: structure-activity studies of 13,24-cyclo-18,21-dinorcholane analogues of the GABA modulatory and anesthetic steroids (3α,5α)- and […]. J. Med. Chem., 46: 5334-48 (2003)—the contents of which are hereby incorporated by reference in their entirety).

Tadpole = Tadpole loss of righting (LRR) and loss of swimming (LSR) reflexes; assay type: in vivo; conditions: ± SEM
Experimental: Table 3 discloses the anesthetic effects of the compounds of the present disclosure. In particular, the anesthetic effect of the compounds of the present disclosure on Loss of Righting Reflex (LRR) and Loss of Swimming Reflex (LSR).
Methods used are known in the art (see Jiang, X., et al.). Error limits are calculated as standard error of the mean (N=10 or more animals at each of five or more different concentrations).

[3] = loss of righting reflex, read-out: Tadpole LRR EC50
[4] = loss of swimming reflex, read-out: Tadpole LSR EC50

Row | Compound | Oocyte electrophysiology 0.1 μM (ratio of currents in presence/absence of compound) [1] | Oocyte electrophysiology 1.0 μM (ratio of currents in presence/absence of compound) [1] | Oocyte electrophysiology (gating) 10 μM (ratio of compound only current/2 μM GABA current) [1] | Oocyte electrophysiology 10 μM (ratio of currents in presence/absence of compound) [1] | IC50 [2] | EC50 (Tadpole; [3]) | EC50 (Tadpole; [4])
1 | C[C@@]12CC3CC[C@H]4C[C@H](O)CCC4C3CC1CCC2=O (stereo partly shown) [MQ-47] | 1.10 ± 0.20 | 1.50 ± 0.28 | −0.01 ± 0.03 | 6.42 ± 1.11 | 1330 nM | 3760 ± 5220 nM | > 10000 nM
2 | C[C@]12C[C@H]3CC[C@@H]4C[C@@H](O)CC[C@H]4[C@@H]3C[C@@H]1CC[C@@H]2C#N [MQ-38] | 1.51 ± 0.19 | 6.92 ± 1.29 | 0.51 ± 0.48 | 12.50 ± 1.98 | 52 ± 7 nM | 380 ± 60 nM | 870 nM
3 | C[C@]12C[C@H]3CC[C@@H]4C[C@@H](O)CC[C@H]4[C@@H]3C[C@@H]1CC/C2=C/C#N [MQ-31] | 1.49 ± 0.09 | 3.93 ± 0.20 | 0.02 ± 0.02 | 8.25 ± 0.71 | 61 ± 4 nM | 430 ± 80 nM | 1040 nM
4 | C[C@@]12CC3CCC4C[C@H](O)CCC4C3CC1CC[C@]21CO1 (stereo partly shown) [MQ-54] | 1.01 ± 0.05 | 4.03 ± 0.31 | 0.05 ± 0.01 | 11.41 ± 1.18 | 1990 nM | 3340 ± 110 nM | 5480 ± 200 nM
5 | C[C@]12CC(=O)CC1CC1C(CCC3C[C@H](O)CCC31)C2 (stereo partly shown) [MQ-48] | 1.03 ± 0.01 | 1.64 ± 0.06 | 0.01 ± 0.0 | 7.10 ± 1.51 | 282 ± 197 nM | 2390 ± 280 nM | 7490 nM
6 | C[C@]12C[C@H]3CCC4C[C@@H](O)CC[C@H]4[C@@H]3C[C@@H]1CCC2=O (stereo partly shown) [MQ-36] | 1.11 ± 0.09 | 1.22 ± 0.05 | −0.06 ± 0.06 | 3.81 ± 0.45 | 1730 nM | 7900 ± 4450 nM | > 30000 nM
7 | C[C@@]12C[C@@H]3CC[C@@H]4C[C@H](O)CC[C@@H]4[C@H]3C[C@H]1CCC2=O [MQ-51] | 0.97 ± 0.03 | 1.02 ± 0.02 | 0.08 ± 0.08 | 1.59 ± 0.11 | 5860 nM | > 10000 nM | > 10000 nM
8 | C[C@@]12CC3CCC4C[C@H](O)CCC4C3CC1CC[C@H]2C#N (stereo partly shown) [MQ-49] | 0.92 ± 0.01 | 1.02 ± 0.01 | 0.02 ± 0.01 | 1.86 ± 0.06 | 1580 nM | 2400 ± 760 nM | 5480 ± 120 nM
9 | C[C@]12C[C@H]3CC[C@@H]4C[C@@H](O)CC[C@H]4[C@@H]3C[C@@H]1CC/C2=C\C#N [MQ-32] | 1.64 ± 0.02 | 3.21 ± 0.13 | 0.12 ± 0.01 | 8.77 ± 1.65 | 147 ± 9 nM | 360 ± 130 nM | 1070 nM
10 | C[C@]12C[C@H]3CC[C@@H]4C[C@@H](O)CC[C@H]4[C@@H]3C[C@@H]1CC[C@@H]2[N+](=O)[O-] [MQ-33] | 1.68 ± 0.10 | 5.30 ± 0.75 | 0.02 ± 0.01 | 9.08 ± 1.83 | 62 ± 6 nM | 240 ± 10 nM | 550 ± 10 nM
11 | CC(=O)[C@H]1CCC2CC3C(CCC4C[C@H](O)CCC43)C[C@@]21C (stereo partly shown) [MQ-39] | 1.32 ± 0.03 | 3.82 ± 0.36 | 0.03 ± 0.0 | 7.91 ± 0.64 | 65 ± 7 nM | 340 nM | 1070 nM
12 | C[C@]12C[C@H]3CC[C@@H]4C[C@@H](O)CCC4C3CC1CC[C@@]21CO1 (stereo partly shown) [MQ-37] | 1.91 ± 0.17 | 16.12 ± 2.24 | 0.54 ± 0.44 | 27.57 ± 5.45 | 46 ± 4 nM | 160 nM | 540 ± 10 nM
13 | C[C@@]12CC[C@@H](O)C[C@@H]1CC[C@H]1C[C@@]3(C)[C@H](CC[C@@]34CO4)C[C@@H]12 [MQ-85] | 2.08 ± 0.23 | 9.59 ± 1.77 | 0.10 ± 0.02 | 17.18 ± 3.31 | 29 ± 7 nM | 350 ± 20 nM | 550 ± 10 nM
14 | C[C@@]12CC[C@H](O)C[C@H]1CC[C@@H]1C[C@]3(C)C(C#N)=CCC3CC12 (stereo partly shown) [MQ-86] | 2.25 ± 0.11 | 10.95 ± 1.05 | 0.16 ± 0.03 | 19.64 ± 2.06 | 43 ± 3 nM | 380 ± 50 nM | 550 ± 10 nM
15 | C[C@@]12CC[C@H](O)C[C@@H]1CC[C@@H]1C[C@]3(C)C(=O)CCC3C[C@H]12 (stereo partly shown) [MQ-83] | 0.85 ± 0.07 | 1.03 ± 0.06 | 0.1 ± 0.2 | 6.35 ± 0.81 | 748 ± 103 nM | 2190 ± 440 nM | 5480 ± 120 nM
16 | C[C@@]12CC[C@H](O)C[C@H]1CC[C@@H]1C[C@@]3(C)C(CC[C@@H]3C#N)CC12 (stereo partly shown) [MQ-87] | 1.93 ± 0.14 | 10.95 ± 0.55 | 0.04 ± 0.01 | 16.10 ± 0.87 | 14 ± 2 nM | 100 ± 10 nM | 330 nM
